Measurements published in patent publication US20170152239A1, “BENZAMIDE AND HETEROBENZAMIDE COMPOUNDS” (PFIZER INC., priority 2012, published 2017).
pIC50: −log10 of the molar value. Read-outs that look alike come from different tables or passages of the source.

Tests used:
EZH2PRC2 mutant Y641N = EZH2PRC2 mutant Y641N (Homo sapiens, UniProt Q15910, Y641N); experiment: EZH2PRC2 mutant Y641N nucleosome assay; format: biochemical; details: read-out: EZH2PCR2 Mutant Y641N IC50
Description: Nucleosome Assay Protocol:
A. Compound preparation • 1. Prepare 10 mM stock solutions in 100% DMSO from solid material • 2. Serial dilute 10 mM compound stocks either 2 or 3-fold in 100% DMSO to generate compounds for 11 point dose response
B. Reagent preparation • 1. Prepare 1× assay buffer containing 100 mM Tris pH 8.5, 4 mM DTT and 0.01% Tween-20 • 2. Dilute purified HeLA oligonucleosomes and recombinant histone H1 (New England Biolabs) in assay buffer to 1.67×. • 3. Dilute EZH2 4 protein complex (EZH2, EED, SUZ12, RbAp48) to 3.5× in assay buffer • 4. Prepare 10×^3H SAM solution in assay buffer using 0.94 μCi/well of radioactive SAM (Perkin Elmer) and sufficient non-labeled SAM (Sigma) for 1.5 μM final concentration. • 5. Dilute TCA to 20% in DI water
C. Enzyme reaction • 1. Final reaction conditions are 5 nM EZH2 4-protein complex, 1.5 μM SAM, 25 μg/mL oligonucleosomes, 50 nM rH1 in a 50 μl reaction volume. • 2. Add 1 μl of diluted compound to the assay plate (96-well V-bottom polypropylene plates) or 1 μl of DMSO for control wells. • 3. Add 30 μl of nucleosomes to the assay plate • 4. Add 14 μl of EZH2 4 protein complex to the assay plate • 5. Add 5 μl of ^3H SAM to start the reaction. • 6. Stop the reaction after 60 minutes with the addition of 100 μl of 20% TCA • 7. Transfer 150 μl of quenched reaction into a prepared filterplate (Millipore #MSIPN4B10) • 8. Apply vacuum to the filterplate to filter the reaction mix through the membrane. • 9. Wash the filterplate with 8×200 μl of PBS, blot dry and dry in an oven for 30 minutes • 10. Add 50 μl of microscint-20 scintillation fluid (Perkin Elmer) to each well, wait 30 minutes and count on a liquid scintillation counter.
D. Data analysis • 1. IC50 values were determined by fitting the data to a 4-parameter IC50 equation using proprietary curve fitting software.
Wild type (WT) EZH2% Effect at 20 μM and IC50 values (μM) generated in WT EZH2 or EZH2PRC2 mutant Y641N nucleosome assays are provided in Table 3 below. A blank entry in the table indicates the data was not generated in that assay.

[1] = biological target: WT EZH2 (EZH2 4 protein complex: EZH2, EED, SUZ12, RbAp48) (Homo sapiens, UniProt O75530+Q09028+Q15022+Q15910); experiment: WT EZH2 nucleosome assay; format: biochemical
Procedure, shortened: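 Radiometric methyltransferase assay: 5 nM EZH2 four-protein complex, 1.5 μM 3H-SAM, 25 μg/mL HeLa oligonucleosomes, 50 nM recombinant H1 in 100 mM Tris pH 8.5, 4 mM DTT, 0.01% Tween-20. 60 min reaction, TCA quench, filter capture, scintillation counting; IC50 from 11-point 4-parameter fit; % effect at 20 μM.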

[2] = nucleosome assay, 5 nM EZH2 4-protein complex, 1.5 μM SAM, read-out: WT EZH2 IC50

EZH2PRC2 mutant Y641N, sequence (Q15910 whole entry Y641N): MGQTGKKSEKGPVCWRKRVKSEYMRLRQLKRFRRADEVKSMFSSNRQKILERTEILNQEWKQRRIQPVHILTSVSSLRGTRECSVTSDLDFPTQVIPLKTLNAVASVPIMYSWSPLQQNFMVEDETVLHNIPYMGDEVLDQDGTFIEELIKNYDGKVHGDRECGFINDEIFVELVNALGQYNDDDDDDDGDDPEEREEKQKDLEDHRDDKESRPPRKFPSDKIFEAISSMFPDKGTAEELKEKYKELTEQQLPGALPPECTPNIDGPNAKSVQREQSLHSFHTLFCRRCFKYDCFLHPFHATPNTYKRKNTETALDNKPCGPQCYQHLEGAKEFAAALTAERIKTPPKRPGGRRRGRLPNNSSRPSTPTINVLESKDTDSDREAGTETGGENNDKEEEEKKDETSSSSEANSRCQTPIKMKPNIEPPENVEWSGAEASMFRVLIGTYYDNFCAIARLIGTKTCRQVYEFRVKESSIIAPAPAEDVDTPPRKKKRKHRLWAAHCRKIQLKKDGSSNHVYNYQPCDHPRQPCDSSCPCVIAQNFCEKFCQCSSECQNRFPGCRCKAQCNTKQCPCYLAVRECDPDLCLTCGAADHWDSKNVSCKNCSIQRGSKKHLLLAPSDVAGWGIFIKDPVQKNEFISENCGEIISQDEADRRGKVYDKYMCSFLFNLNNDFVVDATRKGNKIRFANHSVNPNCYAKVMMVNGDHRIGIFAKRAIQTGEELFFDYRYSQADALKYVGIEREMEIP
EZH2PRC2 mutant Y641N, sequence (O75530 whole entry partner): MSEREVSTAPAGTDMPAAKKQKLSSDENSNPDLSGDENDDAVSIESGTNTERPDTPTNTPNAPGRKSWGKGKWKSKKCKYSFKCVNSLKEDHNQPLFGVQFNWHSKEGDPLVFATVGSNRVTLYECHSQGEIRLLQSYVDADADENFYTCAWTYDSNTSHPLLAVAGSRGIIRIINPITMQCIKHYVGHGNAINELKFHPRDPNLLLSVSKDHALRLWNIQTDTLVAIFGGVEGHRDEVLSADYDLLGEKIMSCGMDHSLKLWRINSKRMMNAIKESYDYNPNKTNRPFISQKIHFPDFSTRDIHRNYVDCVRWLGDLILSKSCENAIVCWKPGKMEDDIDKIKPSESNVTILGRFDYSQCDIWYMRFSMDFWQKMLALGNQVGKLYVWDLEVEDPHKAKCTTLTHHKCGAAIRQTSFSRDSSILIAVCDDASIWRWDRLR
EZH2PRC2 mutant Y641N, sequence (Q15022 whole entry partner): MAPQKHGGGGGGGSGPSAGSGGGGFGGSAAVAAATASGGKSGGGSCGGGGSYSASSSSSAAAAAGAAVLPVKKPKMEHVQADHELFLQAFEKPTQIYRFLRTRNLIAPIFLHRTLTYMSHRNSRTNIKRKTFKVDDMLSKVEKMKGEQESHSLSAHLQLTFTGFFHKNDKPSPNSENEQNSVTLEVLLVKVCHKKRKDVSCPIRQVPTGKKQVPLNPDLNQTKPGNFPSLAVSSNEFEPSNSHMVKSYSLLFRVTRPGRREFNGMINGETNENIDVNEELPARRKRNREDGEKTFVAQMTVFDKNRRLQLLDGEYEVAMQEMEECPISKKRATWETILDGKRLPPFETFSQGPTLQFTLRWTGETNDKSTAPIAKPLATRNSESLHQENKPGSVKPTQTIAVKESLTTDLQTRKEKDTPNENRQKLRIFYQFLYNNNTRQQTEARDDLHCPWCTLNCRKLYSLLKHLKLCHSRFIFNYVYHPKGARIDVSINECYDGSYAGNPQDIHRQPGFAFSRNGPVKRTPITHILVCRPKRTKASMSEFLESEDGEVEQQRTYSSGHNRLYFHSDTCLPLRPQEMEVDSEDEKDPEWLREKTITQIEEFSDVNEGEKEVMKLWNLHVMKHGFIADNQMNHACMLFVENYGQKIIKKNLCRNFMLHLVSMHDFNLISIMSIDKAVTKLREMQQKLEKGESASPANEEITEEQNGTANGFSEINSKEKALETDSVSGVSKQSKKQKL
EZH2PRC2 mutant Y641N, sequence (Q09028 whole entry partner): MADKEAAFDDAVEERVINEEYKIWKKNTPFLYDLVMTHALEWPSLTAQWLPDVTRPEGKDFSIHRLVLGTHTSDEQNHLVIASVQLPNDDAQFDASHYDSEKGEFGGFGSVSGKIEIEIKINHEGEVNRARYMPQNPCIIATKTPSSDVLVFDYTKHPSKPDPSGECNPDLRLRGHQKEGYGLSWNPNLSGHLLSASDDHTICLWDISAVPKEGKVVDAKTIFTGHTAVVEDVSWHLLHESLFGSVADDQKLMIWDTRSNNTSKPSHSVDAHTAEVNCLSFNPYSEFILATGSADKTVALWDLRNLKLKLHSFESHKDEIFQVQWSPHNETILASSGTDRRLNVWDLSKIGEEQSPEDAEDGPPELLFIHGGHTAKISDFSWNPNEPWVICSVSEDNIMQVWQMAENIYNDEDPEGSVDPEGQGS
WT EZH2 (EZH2 4 protein complex: EZH2, EED, SUZ12, RbAp48), sequence (Q15910 whole entry): as the sequence (Q15910 whole entry Y641N) above, with N641Y counted along it
WT EZH2 (EZH2 4 protein complex: EZH2, EED, SUZ12, RbAp48), sequence (O75530 whole entry partner): as the sequence (O75530 whole entry partner) above
WT EZH2 (EZH2 4 protein complex: EZH2, EED, SUZ12, RbAp48), sequence (Q15022 whole entry partner): as the sequence (Q15022 whole entry partner) above
WT EZH2 (EZH2 4 protein complex: EZH2, EED, SUZ12, RbAp48), sequence (Q09028 whole entry partner): as the sequence (Q09028 whole entry partner) above

| SMILES | pIC50 (EZH2PRC2 mutant Y641N) | pIC50 [1, 2] | pIC50 [1] |
| --- | --- | --- | --- |
| Cc1cc(C)c(CNC(=O)c2cccc(-c3ccnn3C)c2C)c(=O)[nH]1 [Example 2, N-[(4,6-dimethyl-2-oxo-1,2-dihydropyridin-3-yl)methyl]-2-methyl-3-(1-methyl-1H-pyrazol-5-yl)benzamide] | 5.26 | 6.47 | – |
| CC(=O)N1C2CCC1c1cc(-c3cc(C(=O)NCc4c(C)cc(C)[nH]c4=O)c(C)c(-c4ccnn4C)c3)ccc12 (centres unmarked) [Example 6, 5-[9-acetyl-1,2,3,4-tetrahydro-1,4-epiminonaphthalene-6-yl]-N-[(4,6-dimethyl-2-oxo-1,2-dihydropyridin-3-yl)methyl]-2-methyl-3-(1-methyl-1H-pyrazol-5-yl)benzamide] | 6.09 | 7.66 | – |
| Cc1cc(C)c(CNC(=O)c2cc(-c3cnc(N(C)C)nc3)cc(-c3ccnn3C)c2C)c(=O)[nH]1 [Example 13, 5-[2-(dimethylamino)pyrimidin-5-yl]-N-[(4,6-dimethyl-2-oxo-1,2-dihydropyridin-3-yl)methyl]-2-methyl-3-(1-methyl-1H-pyrazol-5-yl)benzamide] | 6.21 | 7.42 | – |
| CNc1ncc(-c2cc(C(=O)NCc3c(C)cc(C)[nH]c3=O)c(C)c(-c3ccnn3C)c2)cn1 [Example 14, N-[(4,6-dimethyl-2-oxo-1,2-dihydropyridin-3-yl)methyl]-2-methyl-5-[2-(methylamino)pyrimidin-5-yl]-3-(1-methyl-1H-pyrazol-5-yl)benzamide] | 6.19 | 7.57 | – |
| CNc1ncc(-c2cc(C(=O)NCc3c(C)cc(C)[nH]c3=O)c(C)c(-c3c(C)cnn3C)c2)cn1 [Example 15, N-[(4,6-dimethyl-2-oxo-1,2-dihydropyridin-3-yl)methyl]-3-(1,4-dimethyl-1H-pyrazol-5-yl)-2-methyl-5-[2-(methylamino)pyrimidin-5-yl]benzamide] | 6.52 | – | 7.46 |
| Cc1cc(C)c(CNC(=O)c2cc(-c3cnc(N)nc3)cc(-c3ccnn3C)c2C)c(=O)[nH]1 [Example 16, 5-(2-aminopyrimidin-5-yl)-N-[(4,6-dimethyl-2-oxo-1,2-dihydropyridin-3-yl)methyl]-2-methyl-3-(1-methyl-1H-pyrazol-5-yl)benzamide] | 5.88 | 7.08 | – |
| Cc1cc(C)c(CNC(=O)c2cc(-c3cnc(N4C[C@@H]5C[C@H]4CO5)nc3)cc(-c3c(C)cnn3C)c2C)c(=O)[nH]1 [Example 22, N-[(4,6-dimethyl-2-oxo-1,2-dihydropyridin-3-yl)methyl]-3-(1,4-dimethyl-1H-pyrazol-5-yl)-2-methyl-5-{2-[(1S,4S)-2-oxa-5-azabicyclo[2.2.1]hept-5-yl]pyrimidin-5-yl}benzamide] | 6.12 | 7.57 | – |
| Cc1cc(C)c(CNC(=O)c2cc(-c3cnc(N4CC(F)C4)nc3)cc(-c3c(C)cnn3C)c2C)c(=O)[nH]1 [Example 24, N-[(4,6-dimethyl-2-oxo-1,2-dihydropyridin-3-yl)methyl]-3-(1,4-dimethyl-1H-pyrazol-5-yl)-5-[2-(3-fluoroazetidin-1-yl)pyrimidin-5-yl]-2-methylbenzamide] | 6.26 | 7.66 | – |
| CCCc1cc(C)[nH]c(=O)c1CNC(=O)c1cc(-c2cnn(C)c2)cc(OC(C)C)c1Cl [Example 27, 2-chloro-3-isopropoxy-N-[(6-methyl-2-oxo-4-propyl-1,2-dihydropyridin-3-yl)methyl]-5-(1-methyl-1H-pyrazol-4-yl)benzamide] | 5.29 | 6.54 | – |
| Cc1cc(C)c(CNC(=O)c2ncnc(N3CCN(c4ncccn4)C[C@@H]3C)c2C)c(=O)[nH]1 [Example 31, (S)—N-((4,6-dimethyl-2-oxo-1,2-dihydropyridin-3-yl)methyl)-5-methyl-6-(2-methyl-4-(pyrimidin-2-yl)piperazin-1-yl)pyrimidine-4-carboxamide] | 5.88 | 6.85 | – |
| Cc1cc(C)c(CNC(=O)c2cc(-c3ccc4c(c3)CS(=O)(=O)C4)cc(-c3ccnn3C)c2C)c(=O)[nH]1 [Example 35, N-[(4,6-dimethyl-2-oxo-1,2-dihydropyridin-3-yl)methyl]-5-(2,2-dioxido-1,3-dihydro-2-benzothien-5-yl)-2-methyl-3-(1-methyl-1H-pyrazol-5-yl)benzamide] | 6.46 | 7.38 | – |
| Cc1cc(C)c(CNC(=O)c2nc(Cl)nc(N3CCN(C)C[C@@H]3C)c2C)c(=O)[nH]1 [Example 36, 2-chloro-N-[(4,6-dimethyl-2-oxo-1,2-dihydropyridin-3-yl)methyl]-6-[(2S)-2,4-dimethylpiperazin-1-yl]-5-methylpyrimidine-4-carboxamide] | 4.89 | 5.68 | – |
| Cc1cc(C)c(CNC(=O)c2nc(Cl)nc(N3CCOC[C@@H]3C)c2C)c(=O)[nH]1 [Example 37, 2-chloro-N-[(4,6-dimethyl-2-oxo-1,2-dihydropyridin-3-yl)methyl]-5-methyl-6-[(3S)-3-methyl-morpholin-4-yl]pyrimidine-4-carboxamide] | 5.20 | 5.92 | – |
| Cc1cc(C)c(CNC(=O)c2nc(Cl)nc(N3CCC[C@@H]3C)c2C)c(=O)[nH]1 [Example 41, 2-chloro-N-[(4,6-dimethyl-2-oxo-1,2-dihydropyridin-3-yl)methyl]-5-methyl-6-[(2S)-2-methylpyrrolidin-1-yl]pyrimidine-4-carboxamide] | 5.11 | 5.96 | – |
| CCOc1cccc(C(=O)NCc2c(C)cc(C)[nH]c2=O)c1C [Example 48, N-[(4,6-dimethyl-2-oxo-1,2-dihydropyridin-3-yl)methyl]-3-ethoxy-2-methyl-benzamide] | 4.70 | 5.74 | – |
| COCc1cc(C)[nH]c(=O)c1CNC(=O)c1cc(Cl)cc(-c2ccnn2C)c1C [Example 50, 5-chloro-N-{[4-(methoxymeth-yl)-6-methyl-2-oxo-1,2-dihydropyridin-3-yl]methyl}-2-methyl-3-(1-methyl-1H-pyrazol-5-yl)benzamide] | 4.57 | 5.69 | – |
| COc1cccc(C(=O)NCc2c(C)cc(C)[nH]c2=O)c1C [Example 60, N-[(4,6-dimethyl-2-oxo-1,2-dihydropyridin-3-yl)methyl]-3-methoxy-2-methylbenz-amide] | 4.30 | 5.40 | – |
| Cc1cc(C)c(CNC(=O)c2ncnc(N3CCN(C)C[C@@H]3C)c2C)c(=O)[nH]1 [Example 67, N-[(4,6-dimethyl-2-oxo-1,2-dihydropyridin-3-yl)methyl]-6-[(2S)-2,4-dimethylpipera-zin-1-yl]-5-methylpyrimi-dine-4-carboxamide] | 4.63 | 5.31 | – |
| Cc1cc(C)c(CNC(=O)c2nc(N3CCCC3)nc(N3CCC[C@@H]3C)c2C)c(=O)[nH]1 [Example 88, N-[(4,6-dimethyl-2-oxo-1,2-dihydropyridin-3-yl)methyl]-5-methyl-6-[(2S)-2-methylpyrroli-din-1-yl]-2-pyrrolidin-1-ylpyrimidine-4-carboxamide] | 4.46 | 5.01 | – |
| Cc1cc(C)c(CNC(=O)c2ncnc(N3[C@@H](C)COC[C@@H]3C)c2C)c(=O)[nH]1 [Example 89, 6-[(3S,5S)-3,5-dimethylmorph-olin-4-yl]-N-[(4,6-dimethyl-2-oxo-1,2-dihydropyridin-3-yl)methyl]-5-methylpyrimi-dine-4-carboxamide] | 4.08 | 4.96 | – |
| Cc1cc(C)c(CNC(=O)c2ccnc(N3CCC[C@H]3C)c2Cl)c(=O)[nH]1 [Example 106, 3-chloro-N-[(4,6-dimethyl-2-oxo-1,2-dihydropyridin-3-yl)methyl]-2-[(2R)-2-methylpyrrolidin-1-yl]isonicotin-amide] | 4.07 | 4.70 | – |
| CCn1ncc(C)c1-c1cccc(C(=O)NCc2c(C)c(Br)c(C)[nH]c2=O)c1C [Example 147, N-[(5-bromo-4,6-dimethyl-2-oxo-1,2-dihydropyridin-3-yl)methyl]-3-(1-ethyl-4-methyl-1H-pyrazol-5-yl)-2-methylbenzamide] | < 3.70 | 3.75 | – |
